Measurements published in patent publication US20220071944A1, “Combination Treatment for Solid Tumors Using Docetaxel and a CYP3A Inhibitor” (Modra Pharmaceuticals B.V., priority 2018, published 2022).
Read-outs that look alike come from different tables or passages of the source.

Key:
[1] = Phase IB/IIA trial M17DOC in mCRPC: docetaxel plasma pharmacokinetics; parameters: species or system human; details: in vivo, po
Experimental: A multicenter clinical phase IB/IIA study was conducted in mCRPC (M17DOC), wherein ModraDoc006, an oral docetaxel formulation was combined with ritonavir (ModraDoc006/r), in metastasized castration-resistant prostate cancer (mCRPC).
The study included patients diagnosed with metastasized castration-resistant prostate cancer (mCRPC), dosed in a bi-daily once weekly (BIDW) dosing schedule at 4 dose levels (see table below).

[2] = weekly docetaxel 35 mg/m2 as 0.5 h intravenous infusion; cited from earlier work
[3] = every three weeks IV; cited from earlier work
[4] = Weekly intravenous docetaxel 35 mg/m2 pharmacokinetics (Baker et al. 2004); format: in vivo, human; details: 35 mg/m2 in 0.5 h vs oral in patients with solid tumors (not prostate)
[5] = IV docetaxel AUC in mCRPC vs other tumors (De Vries Schultink et al. meta-analysis); format: in vivo, human

CC(=O)O[C@@]12CO[C@@H]1C[C@H](O)[C@@]1(C)C(=O)[C@H](O)C3=C(C)[C@@H](OC(=O)[C@H](O)[C@@H](NC(=O)OC(C)(C)C)c4ccccc4)C[C@@](O)([C@@H](OC(=O)c4ccccc4)[C@H]21)C3(C)C [docetaxel]
docetaxel clearance in mCRPC patients vs patients with other solid tumors [1]: higher clearance
AUC [2]: 480 ± 410 ng·h/mL
CMAX [2]: 1930 ± 600 ng/mL
q3w AUC of IV docetaxel in mCRPC patients [3]: 1820 ng·h/mL
CMAX of intravenous docetaxel relative to oral ModraDoc006/r 30-20/100-100 [4]: ten-fold higher
ratio of AUCs for IV docetaxel in mCPRC patients vs other tumors ([5]; 1820/3300): 55%
AUC ([5]; male, human, in vivo, iv, weekly equivalent, mCRPC, read-out: weekly AUC of IV docetaxel in mCRPC patients (q3w AUC divided by 3)): ~600 ng·h/mL
